Measured values taken from patent publication US8758816B2, “Compositions comprising azelastine and methods of use thereof” (priority 2004, dated 2014).
Structures can show the parent of a compound that is named as a salt.

Tested on: patients with seasonal allergic rhinitis (SAR)
Experiment: MP 428 two-week randomized double-blind study: Total Nasal Symptom Score (TNSS), change from baseline
Format: in vivo, human
Set-up: key to Change from Baseline in AM TNSS, Mean / Change from Baseline in AM TNSS, LS Mean / Change from Baseline in AM TNSS, Median: TNSS sum of 4 symptoms each 0-3 (0=none, 3=severe); change from baseline
Details: for AUC of Change from Baseline in TNSS (AM and PM Combined), Mean / AUC of Change from Baseline in TNSS (AM and PM Combined), Median / AUC of Change from Baseline in TNSS (AM and PM Combined), LS Mean: Day 1 to Day 14; for AUC of Change from Baseline in TNSS (AM and PM Combined), LS Mean: ANCOVA
Experimental: A two-week, randomized, double-blind study, which evaluated the effects of the co-administration of ASTELIN® (azelastine hydrochloride (HCl)) and FLONASE® (fluticasone propionate) compared to either product alone in patients with seasonal allergic rhinitis (SAR) was conducted during the 2006 Texas mountain cedar season. After a 5-day placebo lead-in period, 151 patients with moderate-to-severe allergic rhinitis symptoms were randomized to either: (1) (49 total patients) ASTELIN® (azelastine hydrochloride (HCl)) plus placebo saline nasal spray 2 sprays per nostril, 15 minutes apart, twice daily (AM & PM); (2) (50 total patients) FLONASE® (fluticasone propionate) plus placebo saline nasal spray, 2 sprays per nostril, 15 minutes apart, once daily (AM) and two sessions of placebo saline nasal spray, 2 sprays per nostril, 15 minutes apart (PM); or (3) (52 total patients) the co-administration of ASTELIN® (azelastine hydrochloride (HCl)) 2 sprays per nostril plus FLONASE® (fluticasone propionate) 2 sprays per nostril (AM), 15 minutes apart, and ASTELIN® (azelastine hydrochloride (HCl)) 2 sprays per nostril plus placebo saline nasal spray, 15 minutes apart, (PM) for a 2-week double-blind treatment period.
The primary efficacy variable was the change from baseline in the Total Nasal Symptom Score (TNSS), which comprised sneezing, itchy nose, runny nose, and nasal congestion (individual symptoms scores were assigned a value between 0 and 3, where 0=no symptoms and 3=severe symptoms). This study was not statistically designed to assess the differences between ASTELIN® and FLONASE®.

[1] = Day 12, Per-Protocol Population
[2] = Day 13, Intent-to-Treat Population
[3] = Day 13, Per-Protocol Population
[4] = Day 14, Intent-to-Treat Population
[5] = Day 14, Per-Protocol Population
[6] = Overall (Day 2 to Day 14), Intent-to-Treat Population
[7] = Overall (Day 2 to Day 14), Per-Protocol Population

SMILES: CN1CCCC(n2nc(Cc3ccc(Cl)cc3)c3ccccc3c2=O)CC1 (racemic) [Azelastine, (±)-1-(2H)-phthalazinone, 4-[(4-chlorophenyl)methyl]-2-(hexahydro-1-methyl-1H-azepin-4-yl)-, mono-hydrochloride]
- Percent Change from Baseline in PM TNSS, Median (Day 12, Intent-to-Treat Population): −25.00%
- Change from Baseline in AM and PM Combined TNSS, LS Mean (Day 12, Intent-to-Treat Population, ANCOVA model): −5.46
- Change from Baseline in AM and PM Combined TNSS, LS Mean [1]: −5.40
- Change from Baseline in AM and PM Combined TNSS, Mean [1]: −5.54
- Change from Baseline in AM and PM Combined TNSS, Median [1]: −5.00
- Percent Change from Baseline in AM and PM Combined TNSS, LS Mean [1]: −27.82%
- Percent Change from Baseline in AM and PM Combined TNSS, Mean [1]: −28.25%
- Percent Change from Baseline in AM and PM Combined TNSS, Median [1]: −25.86%
- Change from Baseline in AM TNSS, LS Mean [2]: −2.55
- Change from Baseline in AM TNSS, Mean [2]: −2.50
- Change from Baseline in AM TNSS, Median [2]: −1.80
- Change from Baseline in AM and PM Combined TNSS, Mean [2]: −5.70
- Change from Baseline in AM and PM Combined TNSS, Median [2]: −5.30
- Change from Baseline in PM TNSS, LS Mean [2]: −3.11
- Change from Baseline in PM TNSS, Mean [2]: −3.21
- Change from Baseline in PM TNSS, Median [2]: −3.00
- Percent Change from Baseline in AM TNSS, LS Mean [2]: −26.36%
- Percent Change from Baseline in AM TNSS, Mean [2]: −26.20%
- Percent Change from Baseline in AM TNSS, Median [2]: −18.37%
- Percent Change from Baseline in AM and PM Combined TNSS, LS Mean [2]: −29.24%
- Percent Change from Baseline in AM and PM Combined TNSS, Mean [2]: −29.35%
- Percent Change from Baseline in AM and PM Combined TNSS, Median [2]: −26.15%
- Percent Change from Baseline in PM TNSS, LS Mean [2]: −32.19%
- Percent Change from Baseline in PM TNSS, Mean [2]: −32.27%
- Percent Change from Baseline in PM TNSS, Median [2]: −33.33%
- Change from Baseline in AM and PM Combined TNSS, LS Mean (Day 13, Intent-to-Treat Population, ANCOVA model): −5.65
- Change from Baseline in AM and PM Combined TNSS, LS Mean [3]: −5.59
- Change from Baseline in AM and PM Combined TNSS, Mean [3]: −5.70
- Change from Baseline in AM and PM Combined TNSS, Median [3]: −5.30
- Percent Change from Baseline in AM and PM Combined TNSS, LS Mean [3]: −29.06%
- Percent Change from Baseline in AM and PM Combined TNSS, Mean [3]: −29.35%
- Percent Change from Baseline in AM and PM Combined TNSS, Median [3]: −26.15%
- Change from Baseline in AM TNSS, LS Mean [4]: −2.56
- Change from Baseline in AM TNSS, Mean [4]: −2.52
- Change from Baseline in AM TNSS, Median [4]: −2.00
- Change from Baseline in AM and PM Combined TNSS, Mean [4]: −5.62
- Change from Baseline in AM and PM Combined TNSS, Median [4]: −5.30
- Change from Baseline in PM TNSS, LS Mean [4]: −3.00
- Change from Baseline in PM TNSS, Mean [4]: −3.10
- Change from Baseline in PM TNSS, Median [4]: −2.80
- Percent Change from Baseline in AM TNSS, LS Mean [4]: −26.51%
- Percent Change from Baseline in AM TNSS, Mean [4]: −26.44%
- Percent Change from Baseline in AM TNSS, Median [4]: −20.00%
- Percent Change from Baseline in AM and PM Combined TNSS, LS Mean [4]: −28.70%
- Percent Change from Baseline in AM and PM Combined TNSS, Mean [4]: −28.86%
- Percent Change from Baseline in AM and PM Combined TNSS, Median [4]: −25.00%
- Percent Change from Baseline in PM TNSS, LS Mean [4]: −31.07%
- Percent Change from Baseline in PM TNSS, Mean [4]: −31.14%
- Percent Change from Baseline in PM TNSS, Median [4]: −28.57%
- Change from Baseline in AM and PM Combined TNSS, LS Mean (Day 14, Intent-to-Treat Population, ANCOVA model): −5.56
- Change from Baseline in AM and PM Combined TNSS, LS Mean [5]: −5.50
- Change from Baseline in AM and PM Combined TNSS, Mean [5]: −5.62
- Change from Baseline in AM and PM Combined TNSS, Median [5]: −5.30
- Percent Change from Baseline in AM and PM Combined TNSS, LS Mean [5]: −28.52%
- Percent Change from Baseline in AM and PM Combined TNSS, Mean [5]: −28.86%
- Percent Change from Baseline in AM and PM Combined TNSS, Median [5]: −25.00%
- AUC of Change from Baseline in TNSS (AM and PM Combined), Mean (Intent-to-Treat Population): −60.38
- AUC of Change from Baseline in TNSS (AM and PM Combined), Median (Intent-to-Treat Population): −56.00
- AUC of Change from Baseline in TNSS (AM and PM Combined), LS Mean (Intent-to-Treat Population): −59.72
- Change from Baseline in AM TNSS, LS Mean [6]: −2.22
- Change from Baseline in AM TNSS, Mean [6]: −2.21
- Change from Baseline in AM TNSS, Median [6]: −1.86
- Change from Baseline in AM and PM Combined TNSS, Mean [6]: −4.73
- Change from Baseline in AM and PM Combined TNSS, Median [6]: −4.24
- Change from Baseline in PM TNSS, LS Mean [6]: −2.57
- Change from Baseline in PM TNSS, Mean [6]: −2.51
- Change from Baseline in PM TNSS, Median [6]: −2.38
- Percent Change from Baseline in AM TNSS, LS Mean [6]: −23.13%
- Percent Change from Baseline in AM TNSS, Mean [6]: −23.29%
- Percent Change from Baseline in AM TNSS, Median [6]: −19.23%
- Percent Change from Baseline in AM and PM Combined TNSS, LS Mean [6]: −24.78%
- Percent Change from Baseline in AM and PM Combined TNSS, Mean [6]: −24.47%
- Percent Change from Baseline in AM and PM Combined TNSS, Median [6]: −24.26%
- Percent Change from Baseline in PM TNSS, LS Mean [6]: −26.45%
- Percent Change from Baseline in PM TNSS, Mean [6]: −25.39%
- Percent Change from Baseline in PM TNSS, Median [6]: −21.68%
- Change from Baseline in AM and PM Combined TNSS, LS Mean (Overall (Day 2 to Day 14), Intent-to-Treat Population, ANCOVA model): −4.76
- Change from Baseline in AM and PM Combined TNSS, LS Mean [7]: −4.73
- Change from Baseline in AM and PM Combined TNSS, Mean [7]: −4.73
- Change from Baseline in AM and PM Combined TNSS, Median [7]: −4.24
- Percent Change from Baseline in AM and PM Combined TNSS, LS Mean [7]: −24.72%
- Percent Change from Baseline in AM and PM Combined TNSS, Mean [7]: −24.47%
- Percent Change from Baseline in AM and PM Combined TNSS, Median [7]: −24.26%
- AUC of Change from Baseline in TNSS (AM and PM Combined), Mean (Per-Protocol Population): −60.38
- AUC of Change from Baseline in TNSS (AM and PM Combined), Median (Per-Protocol Population): −56.00
- AUC of Change from Baseline in TNSS (AM and PM Combined), LS Mean (Per-Protocol Population): −59.23
